One test has as its target T1, PDE5 (Canis lupus familiaris, UniProt O77746).
T1 construct: These were used as a PDE5 enzyme solution for PDE assay; tissue Oriental Yeast (animals); host or cells: canine lung, soluble fraction, DEAE Sepharose fractions
Kind of test: PDE assay, PDE5 enzyme solution from canine lung. The format is biochemical. The following applies: substrate about 12 nM [3H]-cGMP and 1 μM cGMP. How it is done: In the same manner as in (1-4) above, the supernatant obtained from the homogenate of canine lung tissue was applied to chromatography under FLPC system, to collect eluted fractions of 2 ml each.
Subsequently, the eluted fractions were used as an enzyme solution for PDE assay, and cGMP-hydrolyzing activity was measured for respective fractions, in the presence or absence of E4021, the PDE5 specific inhibitor.
Further, for examining contamination of PDE1, which is adjacently eluted, cGMP-hydrolyzing PDE activity of the respective fractions were measured in the same assay buffer containing EGTA (final concentration of 1 mM) [or calcium chloride (final concentration of 2 mM) and calmodulin (40 units/ml)].
These fractions were collected and glycerol was added thereto to become 50%, and the mixture was stored at −20° C. These were used as a PDE5 enzyme solution for PDE assay.

In a further test the test system is marmoset MPTP model. Kind of test: Marmoset MPTP model, effect on bromocriptine efficacy. The format is in vivo. The following applies: together with bromocriptine (0.3 mg/kg), versus vehicle with bromocriptine. The protocol:
Using bromocriptine (bromocriptine mesilate) as a dopamine receptor agonist, effect of test compound on pharmaceutical effects caused by administration of dopamine receptor agonist, in marmoset MPTP model was tested as follows.
The same method was employed as in Example 6, except for using bromocriptine (bromocriptine mesilate) in place of L-dopa and benserazide.
Each test was performed with respect to the same individual sequentially, and intervals of 5 days or more were allowed between the tests. • test 1: vehicle • test 2: vehicle and bromocriptine mesilate • test 3: test compound (PDE10 inhibitor) and bromocriptine mesilate
[…] Further, as test compounds, compounds confirmed with PDE10 inhibitory activities were administered via saphenous vein, 90 minutes before administration of bromocriptine mesilate, under anesthesia by ketamine and isoflurane (In test 1 and test 2, only vehicle was administered in place of the test compound in the same manner).
Bromocriptine mesilate was suspended in 0.5% methylcellulose solution on the day of administration and used. Test compound (PDE10 inhibitor) was dissolved in a solvent 30 minutes before administration and used.
After administration of test compound (PDE10 inhibitor) (or vehicle) and bromocriptine mesilate, locomotor activity and motor disability score were evaluated for each individual, in the same manner as in Example 6. […]

A further test has as its target PDE1. Kind of test: PDE assay, PDE1 enzyme solution from rat ventricle. The format is biochemical, SD rat. The following applies: substrate about 12 nM [3H]-cGMP and 1 μM cGMP. How it is done:
Ventricle was excised from SD rat anesthetized with sodium pentobarbital (Nihon SLC, about 300 g), and washed with 100 ml of ice-cold saline 3 times. After the tissues were cut in approximately 1 g, it was frozen by liquid nitrogen, and stored at −80° C.
To about 5 g of this tissue sample was added 16 ml of an ice-cold homogenization buffer I, and the resultant mixture was homogenized by Polytron homogenizer for 3 minutes. The homogenate was centrifuged at 8000 rpm, at 4° C. for 20 minutes, and the obtained supernatant was further centrifuged by an ultracentrifuge at 50000 rpm, at 4° C. for 60 minutes. The resultant supernatant was stored at 4° C. […]
Subsequently, the eluted fractions were used as an enzyme solution for PDE assay. […] (final concentration of 1 mM) or calcium chloride (final concentration of 2 mM) and calmodulin (40 unit s/ml), and cGMP-hydrolyzing activity was measured.
For these PDE1 containing fractions, cGMP hydrolyzing activities were analyzed in the presence of E4021 (100 nM), PDE5 specific inhibitor, it was shown that the cGMP-hydrolyzing activities in these fractions were not inhibited by E4021. […]
Further, in the presence or absence of unlabeled cGMP, cAMP-PDE activities were measured for each of the fractions. […]
Still further, in the presence of rolipram (10 μm), the PDE4 specific inhibitor, cAMP hydrolyzing activities were measured for each of the fractions. […]

One compound from US8338420B1, “Treatment of Parkinson's disease and enhancement of dopamine signal using PDE 10 inhibitor” (Mitsubishi Tanabe Pharma Corporation, priority 2002, dated 2012) can be followed below.

In the case of `COc1ccc(-c2cc(N3CCCC3)nc(/C=C/c3nc(-n4ccnc4)c4ccccc4n3)n2)cc1OC` [Compound A, 2-{(E)-2-[4-(1-imidazolyl)-quinazolin-2-yl]}ethenyl-4-(3,4-dimethoxy)phenyl-6-(pyrrolidin-1-yl)pyrimidine], the IC50 at PDE5 and against PDE1 was more than 1 µM in each case. In addition, in the test with marmoset MPTP model, the “effects of bromocriptine to alleviate symptoms (locomotor activity and motor disability score)” value is “had a tendency to enhance the effects of bromocriptine to alleviate symptoms”.
